{
  "source": "patent US20170056380A1",
  "about": "“Systems, Methods, Techniques, and Compounds in Research and Treatment of Portal Hypertension and other Conditions” (priority 2014, published 2017)",
  "key": {"protein kinase B (Akt)": {"test_system": "protein kinase B (Akt)", "test": "Akt phosphorylation (Ser473) and total Akt by immunoblotting in sinusoidal endothelial cells", "type": "cell-based, rat", "method": "(§1) Cell isolation and culture. Sinusoidal endothelial cells were isolated from male Sprague-Dawley rats (450-500 g) (Harlan, Indianapolis, Ind.). In brief, after in situ perfusion of the liver with 20 mg/100 mg pronase (Roche Molecular Biochemicals, Indianapolis, Ind.), followed by collagenase (Worthington Biochemical, Lakewood, N.J.), dispersed cell suspensions were removed from a layered discontinuous density gradient of 8.2 and 15.6% Accudenz (Accurate Chemical and Scientific, Westbury, N.Y.), further purified by centrifugal elutriation (18 ml/min flow), and were grown in medium containing 20% serum (10% horse/calf). The purity of endothelial cells was documented by their uptake of fluorescently labeled di-l-acetoacetylated low-density lipoprotein as described (21). Only primary sinusoidal endothelial isolates of >95% purity were used for study. Experiments were performed with cells frorrr a minimum three different isolations (for all experiments).\n(§2) Immunoblotting, Immunoblotting was performed by using specified primary antibodies, including anti-eNOS antibody (1:1,000; BD Transduction Laboratories, San Jose, Calif.), anti-phospho-eNOS-Ser^1177 (1:1,000; BD Transduction Laboratories or Cell Signaling Technology), anti-phospho-Akt, anti-Akt (Cell Signaling Technology, Beverly, Mass.), and horseradish peroxidase-conjugated secondary antibody. Specific signals were visualized using enhanced chemiluminescence as per the manufacturer's instructions and were scanned and quantitated with standard software.\nAnimal model of liver injury and portal hypedension. Liver injury and portal hypertension were induced by performing bile duct ligation in 450- to 500-gram male retired breeder Sprague-Dawley rats as described in Liu and 20- to 25-gram male BALB/c mice. Briefly, bile duct ligation was performed by surgical isolation and ligation of the common bile duct. […] A calibrated low-pressure transducer (Digi-Med, Louisville, Ky.) was connected to the portal vein catheter, and portal pressure was recorded continuously using the Digi-Med Integrator 200 System (Digi-bled)."}, "[1]": {"test_system": "NO production in sinusoidal endothelial cells", "test": "NO measurement (nitrite in conditioned medium of sinusoidal endothelial cells)", "type": "cell-based, rat", "method": "as §1\n(§3) Animal model of liver injury and portal hypedension. Liver injury and portal hypertension were induced by performing bile duct ligation in 450- to 500-gram male retired breeder Sprague-Dawley rats as described in Liu and 20- to 25-gram male BALB/c mice. Briefly, bile duct ligation was performed by surgical isolation and ligation of the common bile duct. This model creates a portal-based fibrogenic response and portal hypertension 10-14 days after surgery (Liu). For study of injured sinusoidal endothelial cells, we used the rat model of bile duct ligation (10-14 days postsurgery); for in vivo study (primarily to conserve the use of active compound), we used the mouse model of bile duct ligation (examining portal pressure 4 wk postsurgery). In sham-operated rats or mice, laparotomy without isolation and section of the bile duct was performed. Studies were approved by the local Institutional Animal Care and Use Committees. Portal pressure measurement. Portal hypertension was induced in male BALB/c mice by bile duct ligation as above. Cicletanine (5 mg·kg^−1·day^−1) or vehicle was given by gavage as a single daily dose for 10 days before portal pressure measurement as described in Liue. In brief, mice were anesthetized, and an intravenous catheter (Becton Dickinson Vascular Access, Sandy, Utah) was introduced in the portal vein and secured with a silk tie. A calibrated low-pressure transducer (Digi-Med, Louisville, Ky.) was connected to the portal vein catheter, and portal pressure was recorded continuously using the Digi-Med Integrator 200 System (Digi-bled).\nNO measurement. To assess NO production, we analyzed the release of nitrite, the stable breakdown product of NO, using a nitrite/nitrate assay kit (Cayman Chemicals, Ann Arbor, Mich.), following the manufacturer's instructions. Briefly, conditioned medium from sinusoidal endothelial cells with or without cicletanine treatment were loaded on a 96-well plate and mixed with both enzyme cofactor and nitrate reductase. After incubation at room temperature for 3 h, 100 μl Griess reagent mix were added to each well. After 10 more minutes at room temperature, the absorbance of each well was determined on a microplate reader at 540 nm, and the nitrite concentrations were deduced from a standard curve."}, "Erk1/2": {"test_system": "Erk1/2", "test": "Erk phosphorylation by immunoblotting in sinusoidal endothelial cells", "type": "cell-based, rat", "details": "2 h", "method": "as §1, with “Only primary sinusoidal endothelial isolates of >95% purity were used for study. Experiments were performed with cells frorrr a minimum three different isolations (for all experiments).” left out\nImmunoblotting, Immunoblotting was performed by using specified primary antibodies, including anti-eNOS antibody (1:1,000; BD Transduction Laboratories, San Jose, Calif.), anti-phospho-eNOS-Ser^1177 (1:1,000; BD Transduction Laboratories or Cell Signaling Technology), anti-phospho-Akt, anti-Akt (Cell Signaling Technology, Beverly, Mass.), and horseradish peroxidase-conjugated secondary antibody. Specific signals were visualized using enhanced chemiluminescence as per the manufacturer's instructions and were scanned and quantitated with standard software. […]"}, "[2]": {"test_system": "bile duct-ligated (BDL) mice", "test": "Portal pressure measurement in bile duct-ligated and sham-operated mice", "type": "in vivo, BALB/c mice", "details": "5 mg·kg−1·day−1 by gavage for 10 days", "method": "as §3, with “In brief, mice were anesthetized, and an intravenous catheter (Becton Dickinson Vascular Access, Sandy, Utah) was introduced in the portal vein and secured with a silk tie.” left out"}, "hepatic stellate cells": {"test_system": "hepatic stellate cells", "test": "Collagen lattice assay (ET-1 stimulated stellate cell contraction, coculture with sinusoidal endothelial cells)", "type": "cell-based, rat", "details": "50 or 100 nM 2 h, then ET-1 10 nM; coculture on collagen lattices", "method": "For coculture experiments, freshly isolated stellate cells and freshly isolated sinusoidal endothelial cells were isolated separately and mixed together on collagen-coated plates and cultured for 5 days. Sinusoidal endothelial cells were plated at a density of 200,000 cells/cm2, and stellate cells were at a density of 65,000 cells/cm2.\nCollagen lattice assay. Contraction of hepatic stellate cells was performed as previously described with minor modifications (25). Briefly, individual wells of a 24-well culture dish were incubated with PBS containing 1% BSA (500 μl/well) for 1 h at 37° C. and then washed two times with PBS and allowed to air dry. Collagen gels were prepared by mixing 60% type I tail collagen (Upstate Laboratories), 10% 10×MEM (GIBCO), 10% 0.2 HEPES, and 20% DMEM (GIBCO) to make a final concentration of collagen of 2.4 mg/ml. The solution was added to the culture wells and incubated for 1 h at 37° C., and hepatic stellate cells and sinusoidal endothelial cells were isolated separately from normal rat livers and cocultured (each at a density of 100,000 cells/lattice) on collagen lattices for 5 days. Cells were changed to serum-free medium overnight, then exposed to cicletanine, and then stimulated with endothelin-1 (ET-1, 10 nM). Collagen lattices were released from their substrata, and gel contraction was measured from 0 to 30 min."}, "eNOS": {"test_system": "eNOS", "test": "eNOS phosphorylation (Ser1177) and total eNOS by immunoblotting in sinusoidal endothelial cells", "type": "cell-based, rat", "method": "as §1, §2, §3"}, "[3]": {"details": "50 or 100 nM, normal sinusoidal endothelial cells"}, "[4]": {"details": "sinusoidal endothelial cells injured by bile duct ligation, 2 h"}, "[5]": {"details": "cicletanine 100 nM, normal sinusoidal endothelial cells"}},
  "note": "“Also recorded” adds a separate entry of the source.",
  "data": [
    {"smiles": "Cc1ncc2c(c1O)COC2c1ccc(Cl)cc1", "note": "(stereo not drawn) [cicletanine, 3-(4-chlorophenyl)-1,3-dihydro-7-hydroxy-6-methylfuro-(3,4-c) pyridine]", "values": [
      {"measurement": "Akt phosphorylation at Ser473", "setting": "protein kinase B (Akt); [3]", "value": "increased"},
      {"measurement": "total Akt expression", "setting": "protein kinase B (Akt); normal sinusoidal endothelial cells", "value": "without a change"},
      {"measurement": "Akt phosphorylation", "setting": "protein kinase B (Akt); [4]", "value": "restored Akt phosphorylation to above normal levels"},
      {"measurement": "dose dependence of effect on nitrite production", "setting": "[1]; 50 or 100 nM, 2 h", "value": "dose dependent"},
      {"measurement": "nitrite levels in conditioned medium", "setting": "[1]; 2 h exposure, normal sinusoidal endothelial cells", "value": "significantly increased"},
      {"measurement": "nitrite production", "setting": "[1]; cells transduced with adenovirus 24 h, then cicletanine 100 nM 2 h", "value": "stimulated"},
      {"measurement": "time at which nitrite levels started to increase", "setting": "[1]; cicletanine 100 nM, 0-4 h", "value": 30, "unit": "min"},
      {"measurement": "nitrite production", "setting": "[1]; [4]", "value": "increase"},
      {"measurement": "phosphorylation of Erk", "setting": "Erk1/2; [3]", "value": "increased in a dose-dependent manner; also recorded: robustly induced"},
      {"measurement": "Erk1/2 phosphorylation", "setting": "Erk1/2; sinusoidal endothelial cells injured by bile duct ligation", "value": "increased"},
      {"measurement": "portal pressure", "setting": "[2]; BDL mice", "value": "significantly reduced"},
      {"measurement": "portal pressure", "setting": "[2]; sham-operated mice", "value": "Slight and nonsignificant decreases"},
      {"measurement": "stellate cell contraction", "setting": "hepatic stellate cells", "value": "inhibited stellate cell contraction in a dose-dependent manner"},
      {"measurement": "phosphorylation of eNOS, dose dependence", "setting": "eNOS; 50 or 100 nM, 2 h, normal sinusoidal endothelial cells", "value": "increased in a dose-dependent manner"},
      {"measurement": "time after exposure of greatest eNOS phosphorylation", "setting": "eNOS; cicletanine 100 nM, 0-4 h", "value": 1, "unit": "h"},
      {"measurement": "eNOS phosphorylation at Ser1177", "setting": "eNOS; [5]", "value": "stimulated; also recorded: increased"},
      {"measurement": "total eNOS expression", "setting": "eNOS; [5]", "value": "unchanged"},
      {"measurement": "eNOS phosphorylation", "setting": "eNOS; [4]", "value": "restored eNOS phosphorylation to above basal levels"}
    ]}
  ]
}
